Test results taken from patent publication US5514694A, “Peptidyl ketoamides” (Georgia Tech Research Corp, priority 1993, dated 1996).
pIC50, pKi: −log10 of the molar value. Where two headings read alike, the source gives them in different places.

Assays:
Format in all cases: biochemical
[1] = molecular target: T1, Calpain I from human erythrocytes (Homo sapiens, UniProt P07384); test: Calpain I inhibition, Suc-Leu-Tyr-AMC hydrolysis (KI); settings: read-out: KI Cal I
T1 construct: Calpain I was purified from human erythrocytes; from tissue; host or cells: human erythrocytes
T1 sequence (P07384 1-714): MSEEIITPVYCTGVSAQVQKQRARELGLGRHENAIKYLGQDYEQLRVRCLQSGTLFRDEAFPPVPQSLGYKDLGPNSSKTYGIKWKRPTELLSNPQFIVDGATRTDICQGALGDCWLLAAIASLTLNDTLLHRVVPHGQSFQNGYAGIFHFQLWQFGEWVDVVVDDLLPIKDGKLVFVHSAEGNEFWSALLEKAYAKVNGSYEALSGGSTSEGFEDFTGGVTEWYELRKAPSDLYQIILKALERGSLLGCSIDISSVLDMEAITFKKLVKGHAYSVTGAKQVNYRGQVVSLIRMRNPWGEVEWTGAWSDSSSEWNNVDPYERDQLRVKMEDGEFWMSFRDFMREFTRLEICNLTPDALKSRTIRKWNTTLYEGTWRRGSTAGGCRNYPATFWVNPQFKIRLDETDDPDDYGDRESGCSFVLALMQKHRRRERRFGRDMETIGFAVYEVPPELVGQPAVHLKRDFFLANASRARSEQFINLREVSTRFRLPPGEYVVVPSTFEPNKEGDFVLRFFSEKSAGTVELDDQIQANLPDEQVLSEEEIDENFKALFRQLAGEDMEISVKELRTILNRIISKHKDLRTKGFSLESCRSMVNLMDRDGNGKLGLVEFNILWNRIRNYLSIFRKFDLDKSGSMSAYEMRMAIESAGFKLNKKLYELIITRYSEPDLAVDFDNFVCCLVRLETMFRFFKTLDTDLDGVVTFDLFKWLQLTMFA
T1 sequence (P04632 1-268 partner): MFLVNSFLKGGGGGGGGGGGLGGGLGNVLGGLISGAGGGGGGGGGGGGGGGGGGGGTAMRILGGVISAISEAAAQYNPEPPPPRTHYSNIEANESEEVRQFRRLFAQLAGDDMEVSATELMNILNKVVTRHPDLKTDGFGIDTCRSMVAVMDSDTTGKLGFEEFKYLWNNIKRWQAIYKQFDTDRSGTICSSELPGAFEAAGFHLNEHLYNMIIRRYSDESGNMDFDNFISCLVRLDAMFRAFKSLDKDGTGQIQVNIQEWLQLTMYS
Method in brief: (§1)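 Human erythrocyte calpain I and rabbit calpain II were followed by fluorimetric AMC release from Suc-Leu-Tyr-AMC at pH 8.0 (25 mM Tris, 10 mM CaCl2). Cathepsin B was run at pH 5.2 with 0.5 mM DTT on a p-nitroanilide substrate, or with Z-Arg-Arg-AFC (ex 400/em 505 nm). Enzyme was added last, and KI was taken from Dixon or Lineweaver-Burk analysis.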

[2] = molecular target: T2, Human leukocyte cathepsin G (Homo sapiens, UniProt P08311); test: Cathepsin G inhibition, Suc-Val-Pro-Phe-NA hydrolysis; settings: Table 4, Z-Leu--AA--CONH-R
T2 sequence (P08311 21-255): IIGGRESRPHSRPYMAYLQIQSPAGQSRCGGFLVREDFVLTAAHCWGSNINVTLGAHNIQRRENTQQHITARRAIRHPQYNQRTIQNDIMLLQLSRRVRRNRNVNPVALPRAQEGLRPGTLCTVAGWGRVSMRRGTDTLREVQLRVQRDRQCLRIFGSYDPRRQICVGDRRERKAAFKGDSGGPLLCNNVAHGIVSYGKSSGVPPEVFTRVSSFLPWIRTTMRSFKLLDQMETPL
Protocol: (§2) Peptide α-ketoamides were assayed as reversible enzyme inhibitors. Various concentrations of inhibitors in Me2 SO were added to the assay mixture which contained buffer and substrate. The reaction was started by the addition of the enzyme and the hydrolysis rates were followed spectrophotometrically or fluorimetrically.
(§3) A 0.1M Hepes, 0.5M NaCl, pH 7.5 buffer was utilized for human leukocyte elastase (HLE), porcine pancreatic elastase (PPE), chymotrypsin and cathepsin G. A 0.1 Hepes, 0.01 M CaCl2, pH 7.5 buffer was utilized for trypsin, plasmin, and coagulation enzymes. A 50 mM Tris.HCl, 2 mM EDTA, 5 mM cysteine, pH 7.5 was used as a buffer for papain. A 88 mM KH2 PO4, 12 mM Na2 HPO4, 1.33 mM EDTA, 2.7 mM cysteine, pH 6.0 solution was used as a buffer for cathepsin B. A 20 mM Hepes, 10 mM CaCl2, 10 mM mercatoethanol, pH 7.2 buffer was utilized for calpain I and calpain II.
(§4) HLE and PPE were assayed with MeO-Suc-Ala-Ala-Pro-Val-NA and Suc-Ala-Ala-Ala-NA, respectively Nakajima et al., J. Biol. Chem. 254, 4027-4032 (1979); incorporated herein by reference!. Human leukocyte cathepsin G and chymotrypsin Aα were assayed with Suc-Val-Pro-Phe-NA Tanaka et al., Biochemistry 24, 2040-2047 (1985); incorporated herein by reference!. The hydrolysis of peptide 4-nitroanilides was measured at 410 nm ε410 =8800 M^-1 cm^-1; Erlanger et al., Arch. Biochem. Biophys. 95, pp 271-278 (1961); incorporated herein by reference!. Trypsin, thrombin, human plasma kallikrein, porcine pancreatic kallikrein, human factor XIa, and human plasmin were assayed with Z-Arg-SBzl or Z-Gly-Arg-SBu-i McRae et al., Biochemistry 20, 7196-7206 (1981); incorporated herein by reference!. All peptide thioester hydrolysis rates were measured with assay mixtures containing 4,4'-dithiodipyridine ε324 =19800 M^-1 cm^-1; Grasetti & Murray, Arch. Biochem. Biophys. 119, 41-49 (1967); incorporated herein by reference!.

[3] = molecular target: T3, human leukocyte elastase (HLE) (Homo sapiens, UniProt P08246); test: HLE inhibition, MeO-Suc-Ala-Ala-Pro-Val-NA hydrolysis; settings: for pIC50: Table 4, Z-Leu--AA--CONH-R; for pKi: Table 4, in brackets under the IC50
T3 sequence (P08246 30-267): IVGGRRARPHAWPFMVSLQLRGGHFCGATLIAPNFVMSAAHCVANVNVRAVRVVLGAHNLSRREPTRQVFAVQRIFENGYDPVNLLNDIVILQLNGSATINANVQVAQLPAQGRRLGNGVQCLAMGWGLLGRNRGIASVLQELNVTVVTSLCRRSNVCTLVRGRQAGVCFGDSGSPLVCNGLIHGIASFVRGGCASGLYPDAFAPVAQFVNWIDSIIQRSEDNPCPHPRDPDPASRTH
Protocol: as §2, §3, §4

[4] = molecular target: T4, cathepsin B (Homo sapiens, UniProt P07858); test: Cathepsin B inhibition (KI); settings: Table 2, Z-Leu--AA--CONH--CH2 CH(OH)-R; read-out: KI Cat B
T4 construct: purchased Sigma
Method in brief: as §1

[5] = molecular target: calpain II from rabbit; test: Calpain II inhibition, Suc-Leu-Tyr-AMC hydrolysis (KI); settings: Table 2, Z-Leu--AA--CONH--CH2 CH(OH)-R; read-out: KI Cal II
Method in brief: as §1

[6] = Table 2, Z-Leu--AA--CONH--CH2 CH(OH)-R

| SMILES | pKi [1, 6] | pIC50 [2] | pIC50 [3] | pKi ([1]; Table 1, Z-Leu--AA--CONHR) | pKi [4] | pKi [5] | pKi [3] |
| --- | --- | --- | --- | --- | --- | --- | --- |
| CC(C)C[C@H](NC(=O)OCc1ccccc1)C(=O)N[C@@H](Cc1ccccc1)C(=O)C(=O)NCC(O)c1ccc(N(C)C)cc1 (stereo partly drawn) [Z-Leu-Phe-CONH--CH2 CH(OH)C6 H4 (4-N(CH3)2)] | 6.21 | 4.24 | 4.55 | – | – | – | – |
| CCC(NC(=O)C(CC(C)C)NC(=O)OCc1ccccc1)C(=O)C(=O)NCC(O)c1cccc(C(F)(F)F)c1 (stereo not drawn) [Z-Leu-Abu-CONH-CH2 CH(OH)-C6 H4 (3-CF3), Z-Leu-Abu-CONH--CH2 CH(OH)C6 H4 (3-CF3)] | 6.46 | < 3.69 | 4.96 | – | – | – | 5.05 |
| CC[C@H](NC(=O)[C@H](CC(C)C)NC(=O)OCc1ccccc1)C(=O)C(=O)NCC(O)c1ccc(N(C)C)cc1 (stereo partly drawn) [Z-Leu-Abu-CONH--CH2 CH(OH)C6 H4 (4-N(CH3)2)] | 6.48 | < 3.69 | 4.74 | – | – | – | 4.72 |

More lines, in order of rising pIC50 [2], values ahead:

| pKi [1, 6] | pIC50 [2] | pIC50 [3] | pKi ([1]; Table 1, Z-Leu--AA--CONHR) | pKi [4] | pKi [5] | pKi [3] | SMILES |
| --- | --- | --- | --- | --- | --- | --- | --- |
| – | 3.87 | < 3.65 | 6.66 | – | – | – | CC(C)CC(NC(=O)OCc1ccccc1)C(=O)NC(Cc1ccccc1)C(=O)C(=O)NCCCN1CCOCC1 (stereo not drawn) [Z-Leu-Phe-CONH-(CH2)3 -4-morpholinyl, Z-Leu-Phe-CONH--(CH2)3 -4-Morpholinyl] |
| 5.89 | 3.99 | 4.36 | – | 5.68 | 7.30 | – | CC(C)C[C@H](NC(=O)OCc1ccccc1)C(=O)N[C@@H](Cc1ccccc1)C(=O)C(=O)NCC(O)c1ccccc1 (stereo partly drawn) [Z-Leu-Phe-CONH-CH2 CH(OH)-Ph, Z-Leu-Phe-CONH--CH2 CH(OH)Ph] |
| 6.74 | 4.10 | 4.15 | – | – | – | – | CC(C)C[C@H](NC(=O)OCc1ccccc1)C(=O)N[C@@H](Cc1ccccc1)C(=O)C(=O)NCC(O)c1cccc(Oc2cccc(C(F)(F)F)c2)c1 (stereo partly drawn) [Z-Leu-Phe-CONH--CH2 CH(OH)C6 H4 -3-OC6 H4 (3-CF3)] |
